Data published in patent US7625948B2, “Ester compound and medicinal use thereof” (Japan Tobacco Inc., priority 2002, dated 2009).

test system: HepG2 cells; assay: Test Example 2: inhibition of apolipoprotein B secretion from HepG2 cells, ELISA (also used for metabolites in Test Example 8); type: cell-based; conditions: Homo sapiens, 24 hours, apo B in supernatant by ELISA, read-out: Test Example 2 Inhibition of apo B secretion IC50
Method: Inhibition of Apolipoprotein B Secretion from HepG2 Cells
HepG2 cells were suspended in Dulbecco's Modified Eagle's Medium (DMEM) (containing 10% fetal bovine serum, 100 units/mL penicillin and 100 μg/mL streptomycin), and placed on a 96-well plate (4×10^4 cells/well), then incubated for 24 hours. After removal of the medium, DMEM was replaced by a medium containing a sample dissolved in DMSO or a medium containing DMSO (concentration of DMSO: 0.5%) and incubation was further performed for 24 hours, after which the supernatant was recovered, and concentration of apo B in the supernatant was assayed by Enzyme-Linked Immunosorbent Assay (ELISA)
ELISA was carried out as follows. Anti-human apo B monoclonal antibody (0.5 μg/well) diluted with a solution of sodium carbonate in sodium bicarbonate buffer (50 mL, pH 9.6) was placed in a 96-well plate for ELISA, and allowed to stand at room temperature for 15 hours. After washing the plate, a blocking solution (250 μL/well) was placed in the well, and allowed to stand at room temperature for 1.5 hours. After washing the plate, a standard and a sample (100 μL/well) were placed in the well and allowed to stand at room temperature for one hour. The standard was prepared by adjusting the concentration of the purified human apo B with the DMEM to 0 to 1000 ng/mL. After washing the plate, an anti-human apo B polyclonal antibody labeled with a horse radish peroxidase which was diluted in 1:1000 with DEME (100 μL/well), and allowed to stand at room temperature for one hour. After washing the plate, 2,2-azinobis(3-ethylbenzothiazoline-6-sulfonic acid) solution (100 μL/well) was placed in the well, and allowed to stand at room temperature for one hour. The reaction was stopped by addition of 2% oxalic acid (100 μL/well), and absorbency at 405 nm was measured. Concentration of apo B in the sample was calculated on the basis of a standard curve of the standard. Inhibition rate (%) was calculated from the assayed values in accordance with the following equation.
Inhibition rate (%)=100×(1 minus (concentration of apo B in sample group/concentration of apo B in DMSO group).
Based on the above equation, 50% inhibition concentration (IC50) was determined.
Inhibitory Activity on MTP and apo B Secretion Inhibition by Metabolites
In a similar manner to Test Examples 1 and 2, the activity of metabolites was assayed.

Structure (SMILES) | IC50 [nM]
CCOC(=O)C(COC(=O)Cc1ccc(OC(=O)c2ccccc2-c2ccc(C(F)(F)F)cc2)c(C(=O)N(C)C)c1)(C(=O)OCC)c1ccccc1 [Example 2-96] | 81
CCOC(=O)C(CC)(COC(=O)Cc1ccc(NC(=O)c2ccccc2-c2ccc(C(F)(F)F)cc2)c(C(=O)N(C)C)c1)C(=O)OCC [Example 2-115] | 44
CCOC(=O)C(COC(=O)Cc1cc(C(=O)N(C)C)c(NC(=O)c2ccccc2-c2ccc(C(F)(F)F)cc2)cc1F)(C(=O)OCC)c1ccccc1 [Example 2-58] | 1.9
CCNC(=O)C(COC(=O)c1ccc(CNC(=O)c2ccccc2-c2ccc(C(F)(F)F)cc2)cc1)(C(=O)NCC)c1ccccc1 [Example 9-6] | 59
CC(=O)OCC(COC(C)=O)(COC(=O)Cc1ccc(NC(=O)c2ccccc2-c2ccc(C(F)(F)F)cc2)c(C(=O)N(C)C)c1)c1ccccc1 [Example 2-104] | 3.58
CCOC(=O)C(COC(=O)Cc1ccc(NC(=O)c2cccc(OC)c2-c2ccc(C(F)(F)F)cc2)c(C(=O)N(C)C)c1)(C(=O)OCC)c1ccccc1 [Example 2-85] | 0.49
CN(C)C(=O)c1cc(CC(=O)OC[C@H](c2ccccc2)N2C(=O)CCC2=O)ccc1NC(=O)c1ccccc1-c1ccc(C(F)(F)F)cc1 [Example 2-26] | 8.2
CCNC(=O)C(CCOC(=O)Cc1ccc(NC(=O)c2ccccc2-c2ccc(C(F)(F)F)cc2)c(CC)c1)(C(=O)NCC)c1ccccc1 [Example 1-81] | 0.49
CCOC(=O)CC(COC(=O)Cc1ccc(NC(=O)c2ccccc2-c2ccc(C(F)(F)F)cc2)c(C(=O)N(C)C)c1)(C(=O)OCC)c1ccccc1 (stereo not drawn) [Example 2-74] | 0.84
CC(=O)N[C@H](COC(=O)Cc1ccc(NC(=O)c2ccccc2-c2ccc(C(F)(F)F)cc2)c(C(=O)N(C)C)c1)c1ccccc1 [Example 2-35] | 38
CCOC(=O)C(COC(=O)Cc1ccc(NC(=O)c2ccccc2C(F)(F)F)c(C(=O)N(C)C)c1)(C(=O)OCC)c1ccccc1 [Example 2-31] | 43
CCOC(=O)C(COC(=O)Cc1ccc(NC(=O)c2ccccc2-c2ccc(C(F)(F)F)cc2)c(CC)c1)(C(=O)OCC)c1ccccc1 [Example 1-78] | 11
CCOC(=O)C(COC(=O)Cc1ccc(NC(=O)c2ccccc2-c2ccc(C(F)(F)F)cc2)c(C(=O)N(C)C)c1)(C(=O)OCC)c1ccc(OC)cc1 [Example 2-77] | 2.74
COCCNC(=O)C(COC(=O)Cc1ccc(NC(=O)c2ccccc2-c2ccc(C(F)(F)F)cc2)cc1)(C(=O)NCCOC)c1ccccc1 [Example 1-73] | 39
CCCC(=O)N[C@H](COC(=O)Cc1ccc(NC(=O)c2ccccc2-c2ccc(C(F)(F)F)cc2)c(C(=O)N(C)C)c1)c1ccccc1 [Example 2-36] | 7.4
CCOC(=O)C(COC(=O)Cc1ccc(NC(=O)c2ccccc2Oc2cccc(C(F)(F)F)c2)c(C(=O)N(C)C)c1)(C(=O)OCC)c1ccccc1 [Example 2-97] | 22
CCOC(=O)C(COC(=O)Cc1ccc(NC(=O)c2ccccc2-c2ccc(C(F)(F)F)cc2)c(C(=O)N(C)C)c1)(C(=O)OCC)c1cccs1 [Example 2-105] | 0.2
CCOC(=O)C(COC(=O)Cc1ccc(NC(=O)c2ccccc2-c2ccc(C(F)(F)F)cc2)c(N2CCCC2)c1)(C(=O)OCC)c1ccccc1 [Example 4-5] | 5.2
CCOC(=O)C(COC(=O)Cc1ccc(NC(=O)c2ccccc2-c2ccc(C(F)(F)F)c(F)c2)c(C(=O)N(C)C)c1)(C(=O)OCC)c1ccccc1 [Example 2-61] | 0.38
CCC(=O)N[C@@H](COC(=O)Cc1ccc(NC(=O)c2ccccc2-c2ccc(C(F)(F)F)cc2)c(C(=O)N(C)C)c1)c1ccccc1 [Example 2-24] | 28
CCOC(=O)C(COC(=O)Cc1ccc(NC(=O)c2ccccc2-c2ccc(C)cc2)c(C(=O)N(C)C)c1)(C(=O)OCC)c1ccccc1 [Example 2-88] | 1.92
CCOC(=O)C(CCOC(=O)Cc1cccc(NC(=O)c2ccccc2-c2ccc(C(F)(F)F)cc2)c1OC(C)C)(C(=O)OCC)c1ccccc1 [Example 5-16] | 3
CCOC(=O)C(COC(=O)Cc1ccc2c(c1)C(=O)N2C(=O)c1ccccc1-c1ccc(C(F)(F)F)cc1)(C(=O)OCC)c1ccccc1 [Example 9-17] | 23

Structure (SMILES) | IC50 [nM]
CCOC(=O)C(COC(=O)Cc1ccc(NC(=O)c2ccccc2-c2ccc(C(F)(F)F)cc2)c(C(=O)N(CC)CC)c1)(C(=O)OCC)c1ccccc1 [Example 2-10] | 1.4
CCOC(=O)C(CCOC(=O)Cc1cccc(NC(=O)c2ccccc2-c2ccc(C(F)(F)F)cc2)c1OC)(C(=O)OCC)c1ccccc1 [Example 5-13] | 2.4
CCOC(=O)C(CCOC(=O)Cc1ccc(NC(=O)c2ccc(C)cc2-c2ccc(C(F)(F)F)cc2)c(C(=O)N(C)C)c1)(C(=O)OCC)c1ccccc1 [Example 2-81] | 0.96
CCOC(=O)C(COC(=O)Cc1ccc(NC(=O)c2ccccc2-c2ccc(C(F)(F)F)cc2)c(C(=O)N(C)C)c1)(C(=O)OCC)C1CCCCC1 [Example 2-41] | 1.2
CCNC(=O)C(COC(=O)Cc1ccc(NC(=O)c2ccccc2-c2ccc(C(F)(F)F)cc2)c(N2CCCCC2)c1)(C(=O)NCC)c1ccccc1 [Example 4-2] | 16
CCOC(=O)C(COC(=O)Cc1ccc(NC(=O)c2cccc(F)c2-c2ccc(C(F)(F)F)cc2)c(C(=O)N(C)C)c1)(C(=O)OCC)c1ccccc1 [Example 2-80] | 0.79
CCNC(=O)C(COC(=O)Cc1ccc(NC(=O)c2ccccc2-c2ccc(C(F)(F)F)cc2)c(C(C)C)c1)(C(=O)NCC)c1ccccc1 [Example 1-79] | 0.59
CCNC(=O)C(COC(=O)Cc1ccc(NC(=O)c2ccccc2-c2ccc(C(F)(F)F)cc2)c(N(C)C)c1)(C(=O)NCC)c1ccccc1 [Example 4, 2-{3-Dimethylamino-4-[(4′-trifluoromethylbiphenyl-2-carbonyl)amino]phenyl}acetic acid 2,2-bisethylcarbamoyl-2-phenylethyl ester] | 0.33
CCOC(=O)C(COC(=O)Cc1ccc(NC(=O)c2sc(C)nc2-c2ccc(C(F)(F)F)cc2)cc1)(C(=O)OCC)c1ccccc1 [Example 1-74] | 680
CCOC(=O)C(COC(=O)Cc1ccc(NC(=O)c2ccccc2-c2ccc(C(F)(F)F)cc2)c(C(=O)N(C)C)c1)(C(=O)OCC)c1sccc1C [Example 2-108] | 0.82
CCNC(=O)C(COC(=O)Cc1ccc(NC(=O)c2sc(C)nc2-c2ccc(C(F)(F)F)cc2)cc1)(C(=O)NCC)c1ccccc1 [Example 1-75] | 97
CCOC(=O)C(COC(=O)CCc1ccc(NC(=O)c2ccccc2-c2ccc(C(F)(F)F)cc2)c(C(=O)N(C)C)c1)(C(=O)OCC)c1ccccc1 [Example 9-5, 2-(3-{3-Dimethylcarbamoyl-4-[(4′-trifluoromethylbiphenyl-2-carbonyl)-amino]-phenyl}-propionyloxymethyl)-2-phenyl-malonic acid diethyl ester] | 3.1
CCCN(C)C(=O)c1cc(CC(=O)OCC(C(=O)NCC)(C(=O)NCC)c2ccccc2)ccc1NC(=O)c1ccccc1-c1ccc(C(F)(F)F)cc1 [Example 2-19] | 26
CCNC(=O)C(COC(=O)Cc1ccc(NC(=O)c2ccccc2-c2ccc(C(F)(F)F)cc2)c(N2CCCC2)c1)(C(=O)NCC)c1ccccc1 [Example 4-3] | 7.9
CCOC(=O)C(COC(=O)Cc1ccc(NC(=O)c2ccc(OC(C)C)cc2-c2ccc(C(F)(F)F)cc2)c(C(=O)N(C)C)c1)(C(=O)OCC)c1ccccc1 [Example 2-83] | 8.87
CCOC(=O)C(COC(=O)Cc1cc(Cl)c(NC(=O)c2ccccc2-c2ccc(C(F)(F)F)cc2)c(C(=O)N(C)C)c1)(C(=O)OCC)c1ccccc1 [Example 2-60] | 1.3
CCOC(=O)C(COC(=O)Cc1ccc(NC(=O)c2ccccc2-c2ccc(C(F)(F)F)cc2)c(Br)c1)(C(=O)OCC)c1ccccc1 [Example 1-85] | 3.2
CC(C)N[C@@H](COC(=O)Cc1ccc(NC(=O)c2ccccc2-c2ccc(C(F)(F)F)cc2)c(C(=O)N(C)C)c1)c1ccccc1 [Example 2-29] | 91
C=C(C)c1ccc(-c2ccccc2C(=O)Nc2ccc(CC(=O)OCC(C(=O)OCC)(C(=O)OCC)c3ccccc3)cc2C(=O)N(C)C)cc1 [Example 2-91] | 0.54
CCCOc1cc(CC(=O)OCC(C(=O)NCC)(C(=O)NCC)c2ccccc2)ccc1NC(=O)c1ccccc1-c1ccc(C(F)(F)F)cc1 [Example 3-12] | 0.72
CN(C)C(=O)c1cc(CC(=O)OCC(C(=O)OCC(F)(F)F)(C(=O)OCC(F)(F)F)c2ccccc2)ccc1NC(=O)c1ccccc1-c1ccc(C(F)(F)F)cc1 [Example 2-56] | 0.93
CCOC(=O)C(COC(=O)Cc1ccc(NC(=O)c2cccc(C)c2-c2ccc(C(F)(F)F)cc2)c(C(=O)N(C)C)c1)(C(=O)OCC)c1ccccc1 [Example 2-55] | 4.2
